Assays:
[1] = tested on: CD28-dependent T cell growth; assay: Mouse T cell proliferation stimulated with anti-CD28 antibody and PMA (tritiumthymidine uptake); format: cell-based; settings: for IC50: T-cell, BALB/c mouse T cells, 10 ng/mL PMA and 250 ng/mL anti-CD28 antibody, tritiumthymidine uptake, read-out: CD28-dependent T cell growth suppressive action (IC50); for CD28-dependent T cell growth suppressive action (in words): mouse T cells stimulated with PMA and anti-CD28 antibody
Experimental: The spleen was aseptically isolated from 6-7-week-old male BALB/c mice (CHARLES RIVER LABORATORIES JAPAN, INC.), and splenocyte suspension was prepared using RPMI1640 medium (manufactured by Sigma-Aldrich Ltd.). After hemolysis by a hypotonic treatment using a mixed solution of 0.83% aqueous ammonium chloride and Tris-HCl buffer (pH 7.65) at 9:1, a T cell concentrated fraction was obtained using a T cell concentrated column (manufactured by R&D systems). A cell suspension prepared using RPMI1640 medium containing 10% fetal calf serum (FCS, manufactured by Sigma-Aldrich Ltd.) was added to a flat-bottomed 96 well microtest plate (manufactured by Becton, Dickinson and Company) at 5×10^5 cells/well. Furthermore, a test compound diluted with a medium to the final concentration of 1-10000 nmol/L, 10 ng/mL PMA (manufactured by Sigma-Aldrich Ltd.) and 250 ng/mL anti-CD28 antibody (manufactured by BD pharmingen) were added, and the mixture was cultured under the conditions of 37° C., 5% carbon dioxide, 95% air for 20 hr. After the completion of culture, tritiumthymidine (specific activity: […], manufactured by MP Biochemicals) was added at 18.5 kBq/well, and the mixture was further cultured for 4 hr. Then, the cells were recovered in a glass fiber filter using a cell harvester (manufactured by Molecular Devices Corp.), the radioactivity taken into the cells was measured using a plate scintillation counter (microbeta 1460, manufactured by PerkinElmer), based on which the mouse T cell growth induced by stimulation with PMA and anti-CD28 antibody was measured. To be specific, suppressing rate (%)=(1−(radioactivity (cpm) of well added with test compound)/(radioactivity (cpm) of well without addition of test compound))×100 was calculated from the average amount of tritiumthymidine uptake (cpm) of T cells in each well added with various concentrations of test compound. In addition, based on the dose response curve obtained by plotting the average tritiumthymidine uptake amount (cpm) or suppressing rate on the vertical axis and the concentration on the transverse axis, the concentration of the compound (IC50) suppressing the value to 50% of that of the control group was determined by nonlinear regression.

[2] = tested on: TYPE II Collagen-Induced Arthritis in DBA/1J Mouse; assay: Type II collagen-induced arthritis in DBA/1J mouse; format: in vivo; settings: 840 h; for inhibition in vivo at 3 mg/kg: 3 mg/kg oral, 2 weeks from booster, average arthritis score at 35 days after primary immunization, P <0.05, read-out: suppressing rate (%) of arthritis score
Experimental: Bovine Type II collagen (purchased from collagen technical workshop) (100-200 μg) was mixed with complete Freund's adjuvant (manufactured by Sigma-Aldrich Ltd.) containing killed tuberculosis H37Ra. Using the resulting emulsion, 6 to 7-week-old male DBA/1J mice (CHARLES RIVER LABORATORIES JAPAN, INC.) were subcutaneously immunized at the tail root twice at 3 week intervals, whereby arthritis was developed. A test compound was suspended or dissolved in 0.5% carboxymethylcellulose (manufactured by Sigma-Aldrich Ltd.), and repetitively administered orally at a dose of 0.1-30 mg/kg body weight using an oral gavage needle for 2 weeks from the day of booster. As to this model, the symptoms of arthritis of four limbs were evaluated based on the following judgment criteria using the scores of from 0 to 4. The arthritis score of each mouse was shown by the total of the scores of four limbs (maximum: 16 points).
As regards the arthritis score, each group (n=5-6) was evaluated using an average value and mean error, with a group administered only with a vehicle being control, and Mann-Whitney U test was used for statistical analysis, wherein p value of 0.05 or below was determined to be significant. In the following, the suppressive action of the compound of the present invention on mouse collagen induced arthritis is shown by the suppressing rate (%) (1−(average arthritis score of compound administration group)/(average arthritis score of control group)×100) calculated from the average arthritis score at 35 days after the primary immunization.

[3] = tested on: Experimental Autoimmune Encephalomyelitis in SJL/J Mouse; assay: Experimental autoimmune encephalomyelitis in SJL/J mouse; format: in vivo; settings: 3 weeks from immunization, average EAE score at 14 days after immunization, P <0.05
Experimental: The 139th-151st peptides (50 μg) of rat-derived proteolipid protein (manufactured by Bachem) was mixed with complete Freund's adjuvant containing killed tuberculosis H37Ra. Using the resulting emulsion, 10-week-old female SJL/J mice (CHARLES RIVER LABORATORIES JAPAN, INC.) were subcutaneously immunized on the back, whereby experimental autoimmune encephalomyelitis (EAE) was developed. The compound of the present invention or a pharmaceutically acceptable salt thereof was suspended or dissolved in 0.5% carboxymethylcellulose (manufactured by Sigma-Aldrich Ltd.), and repetitively administered orally at a dose of 3-30 mg/kg body weight using an oral gavage needle for 3 weeks from the day of immunization. As to this model, the symptoms of EAE were evaluated based on the following judgment criteria using the scores of from 0 to 5.
As regards the EAE score, each group (n=10) was evaluated using an average value and mean error, with a group administered only with a vehicle being control, and Mann-Whitney U test was used for statistical analysis, wherein p value of 0.05 or below was determined to be significant. In the following, the suppressive action of the compound of the present invention on EAE is shown by the suppressing rate (%) calculated from the average EAE score at 14 days after the immunization. […] From the results, the compound is considered effective for encephalomyelitis, multiple sclerosis and the like.

[4] = tested on: Biphasic Auricular Edema in Egg Albumin-Induced Mouse; assay: Egg albumin-induced mouse biphasic auricular edema; format: in vivo; settings: for suppressing rate (%) of auricular edema: 24 hr later, P <0.05; for suppressive action on edema (in words): 24 hr after induction with egg albumin
Experimental: Using saline (0.5 ml) containing egg albumin (10 μg, manufactured by Sigma-Aldrich Ltd.) and 1 mg of aluminum hydroxide gel, 6 to 7-week-old male BALB/c mice (CHARLES RIVER LABORATORIES JAPAN, INC.) were intraperitoneally immunized. Two weeks later, egg albumin (1.25 μg) was intradermally injected into the auricle of the mice for challenge, whereby biphasic auricular edema was induced 1 hr and 24 hr after the challenge. The compound of the present invention or a pharmaceutically acceptable salt thereof was suspended or dissolved in 0.5% carboxymethylcellulose, and repetitively administered orally at a dose of 0.01-30 mg/kg body weight for 3 days, from 2 days before the antigen challenge to the day of challenge, using an oral gavage needle. As for this model, the thickness of the auricle of the mouse was measured using a dial gauge (manufactured by Ozaki MFG. Co. Ltd.) and used as an index of auricular edema. As regards the thickness of the auricle, each group (n=8) was evaluated using an average value and mean error, with a group administered only with a vehicle being control, and t-test was used for statistical analysis, wherein p value of 0.05 or below was determined to be significant.

[5] = tested on: Mouse Graft-Versus-Host Reaction (GvHR); assay: Mouse graft-versus-host reaction (GvHR); format: in vivo; settings: P <0.05 vs vehicle
Experimental: Cyclophosphamide (manufactured by Shionogi & Co., Ltd.) is administered to male BDF1 recipient mouse (8-week-old, CHARLES RIVER LABORATORIES JAPAN, INC.) at a dose of 300 mg/kg from the tail vein as a pretreatment at 24 hr prior to injection of spleen cells. The spleen was aseptically isolated from male C57BL/6 donor mouse (8-week-old, CHARLES RIVER LABORATORIES JAPAN, INC.), minced in RPMI1640 medium (manufactured by Sigma-Aldrich Ltd.), and passed through a stainless mesh to give a splenocyte single cell suspension. After removal of red blood cells by a hypotonic treatment using a mixed solution of 0.83% aqueous ammonium chloride and Tris-HCl buffer (pH 7.65) at 9:1, splenocytes were washed and suspended in physiological saline to give a splenocyte suspension. The prepared cells were injected at 1×10^8 cells/mouse into the tail vein to induce acute GvHR. The compound of the present invention or a pharmaceutically acceptable salt thereof was suspended or dissolved in 0.5% carboxymethylcellulose, and repetitively administered orally at a dose of 3-30 mg/kg body weight for 28 days from the day of splenocyte injection, and the influence on the survival time was evaluated. After induction of acute GvHR, the survival of each individual was determined every day, and the day of confirmed death was taken as the survival time of each individual. As for the survival time, log-rank test analysis was performed using the group administered with vehicle alone as a control, and the multiplicity was adjusted by the Holm's method, wherein p value of 0.05 or below was determined to be significant.

[6] = 3 mg/kg oral for 28 days from splenocyte injection

Row | Compound | IC50 [1] [nM] | CD28-dependent T cell growth suppressive action (in words) [1] | inhibition in vivo at 3 mg/kg [2] [%] | suppressing rate (%) of EAE score ([3]; 3 mg/kg oral) [%] | suppressing rate (%) of auricular edema ([4]; 3 mg/kg oral for 3 days) [%] | suppressive action on edema (in words) ([4]; 3 mg/kg) | median survival time [5, 6] [days] | suppressing rate (%) of EAE score ([3]; 30 mg/kg oral) [%] | median survival time ([5]; 10 mg/kg oral for 28 days from splenocyte injection) [days] | suppressing rate (%) of EAE score ([3]; 10 mg/kg oral) [%] | inhibition in vivo at 10 mg/kg ([2]; po, read-out: suppressing rate (%) of arthritis score) [%] | suppressing rate (%) of auricular edema ([4]; 10 mg/kg oral for 3 days) [%] | suppressive action on edema (in words) ([4]; 10 mg/kg) | median survival time ([5]; 30 mg/kg oral for 28 days from splenocyte injection) [days]
1 | COC(=O)C[C@@H]1N=C(c2ccc(NCc3ccccc3)cc2)c2c(sc(C)c2C)-n2c(C)nnc21 [Example 167, Methyl (S)-{4-(4-benzylaminophenyl)-2,3,9-trimethyl-6H-thieno[3,2-f][1,2,4]triazolo[4,3-a][1,4]diazepin-6-yl}acetate] | 29 | have a CD28-dependent T cell growth suppressive action | 61.4 | 62 | 30.1 | significant suppressive action on edema | 56 |  |  |  |  |  |  | 
2 | CCOC(=O)C[C@@H]1N=C(c2ccc(NCc3ccc(F)cc3)cc2)c2c(sc(C)c2C)-n2c(C)nnc21 [Example 163, Ethyl (S)-(4-{4-[(4-fluorophenyl)methylamino]phenyl}-2,3,9-trimethyl-6H-thieno[3,2-f][1,2,4]triazolo[4,3-a][1,4]diazepin-6-yl)acetate] | 70 | have a CD28-dependent T cell growth suppressive action | 57.4 |  | 44.5 | significant suppressive action on edema |  | 60 | 19 |  |  |  |  | 
3 | COC(=O)C[C@@H]1N=C(c2ccc(-c3cccc(C#N)c3)cc2)c2c(sc(C)c2C)-n2c(C)nnc21 [Example 8, Methyl (S)-{4-(3′-cyanobiphenyl-4-yl)-2,3,9-trimethyl-6H-thieno[3,2-f][1,2,4]triazolo[4,3-a][1,4]diazepin-6-yl}acetate] | 26 | have a CD28-dependent T cell growth suppressive action | 50 |  | 40.5 | significant suppressive action on edema | 56 |  |  | 98 |  |  |  | 
4 | Cc1sc2c(c1C)C(c1ccc(NCc3ccccc3)cc1)=NCc1nnc(C)n1-2 [Example 335, 4-(4-benzylaminophenyl)-2,3,9-trimethyl-6H-thieno[3,2-f][1,2,4]triazolo[4,3-a][1,4]diazepine] | 190 | have a CD28-dependent T cell growth suppressive action |  |  |  |  |  | 53 |  |  | 65.5 | 45.1 | significant suppressive action on edema | 36.5
